Results published in ChEMBL document CHEMBL3244031, “Synthesis of octanoyl[8-leucyl]angiotensin II, a lipophilic angiotensin antagonist” (J Med Chem, 1977).
Where a SMILES comes first, the peptide text is derived from it. The star is where a group is joined. Octanoyl = CCCCCCCC(=O)*

Key:
[1] = Partition coefficient, log K of the compound in n-BuOH-HOAc-H2O; format: physicochemical
[2] = biological target: T1, Angiotensin II receptor (Rattus norvegicus) (UniProt P29089+P25095+P35351); assay: Agonist activity at angiotensin 2 receptor in rat uterus relative to angiotensin-2; format: tissue-based
Rattus norvegicus [3] = assay: Antihypertensive activity in iv dosed rat assessed as time required for recovery of angiotensin-2-induced increase in blood pressure; format: functional, organism-based
[4] = biological target: T1, Angiotensin II receptor (Rattus norvegicus); assay: Antagonist activity at angiotensin 2 receptor in rat uterus assessed as time required for recovery of organ's response at 2 X 10^-7 M administered 3 mins prior to angiotensin-2 challenge followed by compound washout at 2 mins post challenge; format: tissue-based
Cavia porcellus [5] = assay: Antagonist activity at angiotensin 2 receptor in guinea pig ileum assessed as time required for recovery of organ's response at 2 X 10^-7 M administered 3 mins prior to angiotensin-2 challenge followed by compound washout at 2 mins post challenge; format: tissue-based
[6] = Antagonist activity at angiotensin 2 receptor in guinea pig ileum assessed as inhibition of angiotensin-2-induced effect after 15 mins; format: tissue-based; settings: Cavia porcellus, 0.25 h, read-out: pA2 (converted)
Rattus norvegicus [7] = assay: Antihypertensive activity in iv dosed rat assessed as dose required to inhibit angiotensin-2-induced increase in blood pressure; format: functional
Cavia porcellus [8] = organism: Cavia porcellus; assay: Agonist activity at angiotensin 2 receptor in guinea pig ileum relative to angiotensin-2; format: tissue-based
Cavia porcellus [9] = organism: Cavia porcellus; assay: Antagonist activity at angiotensin 2 receptor in guinea pig ileum assessed as concentration required to reduction of angiotensin-2-induced maximum response by one-half after 15 mins; format: tissue-based
[10] = biological target: T1, Angiotensin II receptor (Rattus norvegicus); assay: Antagonist activity at angiotensin 2 receptor in rat uterus assessed as concentration required to reduce maximum response induced by agonist by one-half after 15 mins; format: tissue-based
Rattus norvegicus [11] = assay: Increase in blood pressure in iv dosed rat relative to angiotensin-2; format: functional
Angiotensin II receptor = biological target: T2, Angiotensin II receptor (Rattus norvegicus, UniProt P29089+P25095+P35351); assay: Antagonist activity at angiotensin 2 receptor in rat uterus assessed as inhibition of angiotensin-2-induced effect after 15 mins; format: tissue-based
T2 sequence (P29089 whole entry): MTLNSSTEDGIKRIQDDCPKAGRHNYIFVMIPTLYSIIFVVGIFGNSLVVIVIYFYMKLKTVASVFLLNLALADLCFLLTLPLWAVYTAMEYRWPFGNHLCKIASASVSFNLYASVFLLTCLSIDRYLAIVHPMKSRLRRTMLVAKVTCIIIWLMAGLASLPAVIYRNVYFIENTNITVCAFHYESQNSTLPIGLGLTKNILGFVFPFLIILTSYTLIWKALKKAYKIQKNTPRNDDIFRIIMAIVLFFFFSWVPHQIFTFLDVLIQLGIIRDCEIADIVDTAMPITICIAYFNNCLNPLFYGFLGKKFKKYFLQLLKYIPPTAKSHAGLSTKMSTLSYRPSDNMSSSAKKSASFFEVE
T2 sequence (P25095 whole entry): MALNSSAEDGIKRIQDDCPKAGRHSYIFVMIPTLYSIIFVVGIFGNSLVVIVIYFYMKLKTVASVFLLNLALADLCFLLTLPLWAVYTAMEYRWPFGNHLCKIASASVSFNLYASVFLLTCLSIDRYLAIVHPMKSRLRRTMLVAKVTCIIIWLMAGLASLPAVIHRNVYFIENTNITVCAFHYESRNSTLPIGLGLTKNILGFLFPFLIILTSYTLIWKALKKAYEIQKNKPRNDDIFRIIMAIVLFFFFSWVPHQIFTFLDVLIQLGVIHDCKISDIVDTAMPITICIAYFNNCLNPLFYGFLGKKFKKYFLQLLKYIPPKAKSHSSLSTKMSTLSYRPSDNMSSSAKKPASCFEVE
T2 sequence (P35351 whole entry): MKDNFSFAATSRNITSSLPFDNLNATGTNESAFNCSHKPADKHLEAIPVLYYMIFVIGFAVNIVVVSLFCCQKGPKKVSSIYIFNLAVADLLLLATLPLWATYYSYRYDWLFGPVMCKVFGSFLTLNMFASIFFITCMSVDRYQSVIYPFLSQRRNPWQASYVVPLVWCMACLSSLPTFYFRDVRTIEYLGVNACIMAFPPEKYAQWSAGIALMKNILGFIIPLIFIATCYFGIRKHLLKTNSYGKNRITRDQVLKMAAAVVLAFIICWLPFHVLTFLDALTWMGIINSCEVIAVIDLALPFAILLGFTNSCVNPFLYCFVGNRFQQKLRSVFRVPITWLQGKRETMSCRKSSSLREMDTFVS

Cavia porcellus [12] = assay: Antagonist activity at angiotensin 2 receptor in guinea pig ileum assessed as time required for recovery of organ's response at 2 X 10^-8 M administered 3 mins prior to angiotensin-2 challenge followed by compound washout at 2 mins post challenge; format: tissue-based
[13] = biological target: T1, Angiotensin II receptor (Rattus norvegicus); assay: Antagonist activity at angiotensin 2 receptor in rat uterus assessed as time required for recovery of organ's response at 2 X 10^-8 M administered 3 mins prior to angiotensin-2 challenge followed by compound washout at 5 mins post challenge; format: tissue-based

Row | K [1] | Activity [2] [%] | T1/2 [4] [min] | pAh [10] | pA2 (Angiotensin II receptor) | T1/2 [13] [min] | Compound | T1/2 (Rattus norvegicus [3]) [min] | T1/2 (Cavia porcellus [5]) [min] | Kb [6] [µM] | Activity (Rattus norvegicus [7]) [ug/min.kg] | Activity (Cavia porcellus [8]) [%] | pAh (Cavia porcellus [9]) | Activity (Rattus norvegicus [11]) [%] | T1/2 (Cavia porcellus [12]) [min]
1 | 7 | 0.21 | 6.6 | 6 | 8.42 | – | CCCCCCCC(=O)N[C@@H](CC(=O)O)C(=O)N[C@@H](CCCNC(=N)N)C(=O)N[C@H](C(=O)N[C@@H](Cc1ccc(O)cc1)C(=O)N[C@H](C(=O)N[C@@H](Cc1cnc[nH]1)C(=O)N1CCC[C@H]1C(=O)N[C@@H](CC(C)C)C(=O)O)[C@@H](C)CC)C(C)C (Octanoyl-DRVYIHPL-OH) | 12 | 1.7 | 0.0229 | 2.3 | 0.15 | 6.2 | 0.1 | –
2 | 0.18 | 0.025 | – | 6.2 | 8.33 | 28.1 | H-DRVYIHPL-OH | 12 | – | 0.0012 | 10.2 | 0.016 | 7.3 | 0.09 | 3.8
